The term inhibition denotes the drop in the measured response relative to a control, in per cent.

The source of these data is patent publication US10828309B2, “Dermocosmetic or pharmaceutical use of a composition comprising at least one inhibitor of some chemoattractant cytokines” (GREENPHARMA, priority 2014, dated 2020).

Structures are written as SMILES. Like-named read-outs stand apart in the source and are kept apart here.

One data set has as its target T1, CCL17 (Homo sapiens, UniProt Q92583).
T1 sequence (Q92583 24-94): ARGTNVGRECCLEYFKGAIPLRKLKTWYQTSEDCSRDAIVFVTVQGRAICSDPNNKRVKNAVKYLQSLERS
In words: Interaction affinity with CCL17 by fluorescence extinction of tryptophan residues. The data set is classed as binding. The note with it: CCL17 1.5 μm, excitation 285 nm. On the procedure:
Briefly: the fluorescence measurements are carried out on a spectrofluorimeter Fluorolog 3 (JobinYvon/Spex) in a quartz cuvette. […] The measurements are carried out at 20° C. and the solutions are stirred using a magnetic stir bar. The recorded emission spectra are corrected by subtraction of the emission spectrum of the compound to be tested alone.

In the next data set the target is T2, CCL22 (Homo sapiens, UniProt O00626).
T2 sequence (O00626 25-93): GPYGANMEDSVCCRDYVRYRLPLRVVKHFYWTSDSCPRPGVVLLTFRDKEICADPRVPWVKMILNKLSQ
In words: Inhibition of calcium response induced by CCL22 in cells expressing CCR4 (Indo-1). The class given is cell-based. The note with it: molecules at 10 μm, read-out: Inhibition of calcium responses induced by CCL22 (%). On the procedure:
In order to enable an easy recording of the responses associated to the CCR4 receptor, the cDNA which allows its expression is cloned in the plasmid pIRES (ClonTech) in fusion with the GFP protein, according to Vollmer et al. (1999), which enables to easily measure the expression of the chimeric EGFP-CCR4 receptor. HEK 293 cells (ATCC) are cultured in minimal essential medium MEM (Invitrogen) in the presence of 10% of fetal calf serum (Gibco-BRL), 100 U/mL of penicillin (Invitrogen), 100 μg/mL of streptomycin (Invitrogen) and 2 mM of L-glutamine (Invitrogen) at 37° C. in water-saturated atmosphere and containing 5% of 002. The cells are transfected according to the calcium phosphate precipitate method of Chen ant Okayama, 1986, and the cells having incorporated the expression plasmid are selected with 600 μg/mL of geneticin G-418 (PAA) for 5 weeks. The clones are selected after having been characterized by fluorescence microscopy and cytometric analysis by FACS (fluorescence assisted cell sorting).
(§1) In order to enable an easy recording of the cell responses associated to the CCR4 receptor, we modify its natural coupling to the inhibition of AMPc production to a coupling to the phospholipase C which enables calcium measurements. We produce for this purpose the chimeric protein Gqi5 by directed mutagenesis of the 5 las amino acids of Gq replaced by their homologues of Gi. The cells expressing the CCR4 receptor are transfected with the plasmid pCNA3.1 in which the cDNA encoding Gqi5 has been incorporated. The recordings of calcic responses are performed the day after de transfection.
(§2) The cells are loaded with a fluorescent calcium indicator, INDO-1, according to the protocol provided by the provider (Molecular probes), distributed in microplate wells and placed in a fluorescence reader-pipettor (FlexStation, Molecular devices).
Intracellular calcium elevation is measured by fluorescence intensity change at 401 and 475 nm (excitation 355 nm). Measure points are recorded every 5 s for 150 s for each well. The molecules are tested in the presence of 5 nM of CCL17 chemokine (commercial).
The response develops in a few seconds and fades with time for reaching the return in approximately 2 minutes for a CCL17 chemokine concentration of 5 to 10 nM in HEK 293 cells expressing CCR4. If the molecules to be tested are preincubated with chemokine [CK+N] and if the mixture is added to the cells, we observe a strong decrease in the amplitude of the response if the molecule to be tested is a neutralizing ligand of the chemokine. Conversely, when the neutralizing ligand is preincubated with the cells expressing the receptor [CKR+N] we observe a much smaller decrease of the amplitude of the response.
The analysis of the molecules selectivity is carried out by measuring the inhibition (at the concentration of 10 μm) of the response evoked by other chemokines (5 μm) on their respective receptors. Thus, in FIG. 3, the molecules have been tested on the pairs CCL2/CCR2, CCL3/CCR5, CCL17/CCR4, CCL22/CCR4, […], CXCL11/CXCR3, CXCL12/CXCR4.

The target of the next data set is T3, CCL17 chemokine (Homo sapiens, UniProt Q92583).
T3 construct: purchased; host or cells: HEK 293 cells stably transfected with EGFP-CCR4, transiently transfected with Gqi5
T3 sequence (Q92583 24-94): T1 sequence (Q92583 24-94)
The experiment in a line: Inhibition of calcium response induced by CCL17 in HEK 293 cells expressing CCR4 (Indo-1). The class given is cell-based. On the procedure: HEK 293 cells (ATCC) are cultured in minimal essential medium MEM (Invitrogen) in the presence of 10% of fetal calf serum (Gibco-BRL), 100 U/mL of penicillin (Invitrogen), 100 μg/mL of streptomycin (Invitrogen) and 2 mM of L-glutamine (Invitrogen) at 37° C. in water-saturated atmosphere and containing 5% of 002. […] The clones are selected after having been characterized by fluorescence microscopy and cytometric analysis by FACS (fluorescence assisted cell sorting).
as §1, §2
Measure points are recorded every 5 s for 150 s for each well. The molecules are tested in the presence of 5 nM of CCL17 chemokine (commercial).
The molecules are tested at the concentration of 10 μm. The concentration of CCL17 is 5 nM.

Another data set deals with T4, COX-1 (Homo sapiens, UniProt P23219).
T4 construct: endogenous in cells; host or cells: human monocytes in culture
The experiment in a line: COX-1 activity by PGE2 production in monocytes treated with arachidonic acid. The data set is classed as cell-based. The note with it: up to 250 μM. As for the experimental part: (§3) Determination of the Activity of COX 1 and COX 2 Cyclooxygenases on Human Monocytes in Culture.
COX-1: the release of COX-1 mediated prostaglandin E2 (PGE2) is determined by the arachidonic acid method. […] After 15 minutes of stimulation, the activity of COX-1 is measured by determination of the production of PGE2. Aspirin (ASS) a known inhibitor of COX-1 is used as a control inhibitor.

The subject of the next data set is human monocytes. The experiment in a line: Cytotoxicity on human monocytes, Alamar blue assay. The class given is cell-based. The note with it: human monocytes with LPS, 5 concentrations, 24 hours. On the procedure: Monocytes are inoculated in plates of 96 wells (approx. 5000 cells/well of 200 μl) for the Alamar blue assay.
After 24 hours, Alamar blue fluorescence is measured.

A further data set addresses T5, COX-2 (Homo sapiens, UniProt P35354).
T5 construct: endogenous in cells; host or cells: human monocytes in culture, LPS-induced
T5 sequence (P35354 18-604): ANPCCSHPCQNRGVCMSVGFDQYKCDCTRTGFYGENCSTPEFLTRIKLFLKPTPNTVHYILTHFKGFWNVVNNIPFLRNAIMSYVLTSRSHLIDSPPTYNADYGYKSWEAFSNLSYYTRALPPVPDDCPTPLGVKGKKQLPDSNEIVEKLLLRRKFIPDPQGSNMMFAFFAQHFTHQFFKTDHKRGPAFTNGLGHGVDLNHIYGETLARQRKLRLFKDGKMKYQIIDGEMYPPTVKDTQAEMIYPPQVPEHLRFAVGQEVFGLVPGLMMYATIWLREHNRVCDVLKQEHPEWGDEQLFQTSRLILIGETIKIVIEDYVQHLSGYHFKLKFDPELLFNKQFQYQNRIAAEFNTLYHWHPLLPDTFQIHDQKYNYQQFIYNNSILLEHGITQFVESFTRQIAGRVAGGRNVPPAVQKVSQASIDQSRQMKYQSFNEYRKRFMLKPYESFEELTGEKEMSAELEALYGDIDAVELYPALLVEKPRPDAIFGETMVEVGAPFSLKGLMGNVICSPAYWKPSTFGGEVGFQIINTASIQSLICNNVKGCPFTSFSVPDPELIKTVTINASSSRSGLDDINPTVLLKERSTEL
In words: COX-2 activity by PGE2 production in LPS-induced monocytes. The data set is classed as cell-based. As to conditions: LPS-treated monocytes. On the procedure:
as §3
COX-2: monocytes are incubated with LPS (10 U/ml) for 24 h in order to induce COX-2 synthesis. […] The arachidonic acid is added 15 minutes after the compounds to be tested, and 15 minutes later the production of PGE2 is determined.

The subject of data set [1] is Hacat cells. The experiment in a line: Human keratinocytes migration assay (in vitro wound-healing test in a cell monolayer). The data set is classed as cell-based. As for the experimental part: It is actually known that, in chronic pathologies an important cell migration may promote de formation of pruritus, one of the signs of dermatosis. The immortalized human keratinocytes obtained from the DKFZ (Heidelberg, Germany) are cultivated in Dulbecco medium modified by Eagle (DMEM, Invitrogen) supplemented with 10% of fetal calf serum (Gibco-BRL) and 100 U/ml of penicillin (Invitrogen), 100 μg/ml of streptomycin (Invitrogen) and 2 mM of L-glutamine (Invitrogen) at 37° C. and 5% of CO2. The wells of a culture plate of 24 well are inoculated with 200,000 cells and the culture is maintained until formation of a confluent cell monolayer. The cell monolayer is then damaged by performing a linear gap (scratch) using a sterile pipette head of 0.1-10 μL. […] The effect of the molecules alone is also recorded in different wells. In order to block cell proliferation, each well receives a dose of 1 μg/ml of mitomycin (Sigma-Aldrich). The culture plates are arranged in the IncuCyte apparatus (Essence Bioscience) which records the growth on the cell monolayer by transmitted imaging in cell culture conditions (37° C., 5% CO2, water-saturated atmosphere) for 72 h. Phase-contrast images are collected every 2 hours. Healing is defined (quantified) as the ratio of the width of the scar at time t and time 0. The experiment is repeated three times per condition.

The test system of data set [2] is Hacat cells. In words: Cytotoxicity measurement, WST-1 metabolic activity test. The class given is cell-based, human. The note with it: 0.3 μM, 10 μM or 30 μM, 72 hours. On the technique in general: Formazan colour is commonly taken as a measure of viable cells.
Setting [3] is: HEK293, molecules at 10 μm, CCL17 5 nM, HEK 293 cells expressing CCR4, read-out: Inhibition of calcium responses induced by CCL17 (%).
The mark [4] stands for this setting: HEK293, read-out: Inhibition of calcium responses induced by CCL17 (%).

Turning to `COc1cc2nc(N3CCC(N4CCCCC4)CC3)nc(NC3CCCCCC3)c2cc1OC` [C-021, reference compound], the “Fluorescence extinction of CCL17 (intrinsic tryptophan fluorescence)” value on CCL17 was “no signal”.
On to `Cn1c(=O)c2c(ncn2C)n(C)c1=O` [Caffeine, reference compound], for which the inhibition at 10 µM at CCL22 and on CCL17 chemokine (setting [3]) was 0% throughout.
Regarding `Cc1nc2c(=O)[nH]c(=O)[nH]c2[nH]1` [GPN062], the inhibition at 10 µM at CCL22 and on CCL17 chemokine (setting [3]) was 0% in each case.
In the case of `CC(C)=CCn1cnc2c1c(=O)n(C)c(=O)n2C` [GPN279, 3,7-dihydro-1,3-dimethyl-7-(3-methyl-2-butenyl)-1H-purin-2,6-dione], the “Fluorescence extinction of CCL17 (intrinsic tryptophan fluorescence)” value at CCL17 is “fluorescence extinction of CCL17 is observed”. At CCL22, the inhibition at 10 µM came to 0%. In addition, the “COX-1 inhibition (PGE2 production)” value on COX-1 is given as “not a COX-1 inhibitor”. For the same compound, in the data set on human monocytes, the “Cytotoxicity by Alamar blue” value is recorded as “not cytotoxic”. Also, the entries for the “Effect on COX-2 activity (PGE2 production)” value on COX-2 (beyond 100 μM) and on COX-2 (up to the dose of 100 μM) were “slight increase in COX-2 activity” and “no effect”, respectively. For the same compound, the “Inhibition of calcium responses induced by CCL17 (%)” value at CCL17 chemokine (molecules at 10 μm, CCL17 5 nM, HEK 293 cells expressing CCR4) amounted to 42 ± 4%. The “Effect on cell migration accelerated by the CCL17 chemokine” value in the data set on Hacat cells [1] (Hacat monolayer, CCL17 100 ng/ml, 72 hours) is given as “abolished”. The “Dose-response relationship on Hacat cell monolayer healing” value in the data set with Hacat cells [1] (with CCL17, 0.3 μM, 1 μM, 10 μM) is “its effect depends on the dose”. Moreover, the “Effect of the molecule alone on Hacat cell monolayer healing” value with Hacat cells [1] (without CCL17) is given as “does not have an effect”. Also, the “Activity of the mitochondrial enzyme (WST-1, absorbance 450 nm)” value with Hacat cells [2] was “does not affect enzymatic activity”.
For the compound `CCCCn1cnc2c1c(=O)n(C)c(=O)n2C` [GPS008658, 3,7-dihydro-7-butyl-1,3-dimethyl-1H-purine-2,6-dione], the inhibition at 10 µM stood at 32 ± 8% at CCL22 and 40 ± 9% at CCL17 chemokine (setting [4]).
Turning to `CC(C)Cn1cnc2c1c(=O)n(C)c(=O)n2C` [GPS008659, 3,7-dihydro-7-isobutyl-1,3-dimethyl-1H-purine-2,6-dione], the inhibition at 10 µM at CCL22 worked out at 5 ± 5%; at CCL17 chemokine (setting [4]) it was 36 ± 7%.
Take `C=CCn1cnc2c1c(=O)n(C)c(=O)n2C` [GPS008660, 3,7-dihydro-7-allyl-1,3-dimethyl-1H-purine-2,6-dione]: the inhibition at 10 µM came out at 0% on CCL22 and 19 ± 5% at CCL17 chemokine (setting [4]).
`CCCCC(CC)Cn1cnc2c1c(=O)n(C)c(=O)n2C` (stereo not shown) [GPS008661, 3,7-dihydro-7-(2-ethylhexyl)-1,3-dimethyl-1H-purine-2,6-dione]: the inhibition at 10 µM at CCL22 and at CCL17 chemokine (setting [3]) was 0% each time.
As for `CC(C)Cn1c(=O)n(C)c(=O)c2nc[nH]c21` [IBMX, reference compound], the inhibition at 10 µM on CCL22 and at CCL17 chemokine (setting [3]) was 0% throughout.
`Cn1c(=O)c2[nH]cnc2n(C)c1=O` [Theophylline, reference compound]: the inhibition at 10 µM at CCL22 and at CCL17 chemokine (setting [4]) was 0% each time.
